From patent US20230167127A1, “COMPOUNDS AND THEIR USE IN THE TREATMENT OF BACTERIAL INFECTION” (Hoffmann-La Roche Inc., priority 2020, published 2023)
Structures can show the parent of a compound that is named as a salt. Where two headings read alike, the source gives them in different places.

System: Escherichia coli ATCC 25922
Test: 50% growth inhibitory concentration (IC50) determination, Iso-Sensitest broth dilution
Type: cell-based
Details: strain Escherichia coli ATCC 25922, 10-point broth dilution, optical density at 600 nm over 16 h, read-out: Escherichia coli growth inhibition IC50
In short: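 Growth was tracked as optical density at 600 nm every 20 minutes for 16 h at 35±2° C. Compounds from DMSO stocks were serially diluted twofold over 10 points (e.g. 50–0.097 μM final) in Iso-Sensitest broth. Inhibition computed in log-phase growth to give IC50.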

[1] = Escherichia coli, ATCC25922, 16 h

Row | Compound | IC50 [1] [nM] | IC50 [nM]
1 | CS(=O)(=O)N1CC(Oc2cc(F)c3c(c2)CC(CNCCC2CN(c4cnc5c(n4)NC(=O)CO5)C(=O)O2)C3)C1 (stereo not drawn) [Example 355, 6-[5-[2-[[4-fluoro-6-(1-methylsalfonylazetidin-3-yl)oxy-2,3-dihydro-1H-inden-2-yl]methylamino]ethyl]-2-oxo-1,3-oxazolidin-3-yl]-4H-pyrazino[2,3-b][1,4]oxazin-3-one hydrochloride] | 162 | 
2 | Cc1c(OCC2(N)CC2)ncc2c1CC(CNCCC1CN(c3ccc4c(n3)NC(=O)CO4)C(=O)O1)C2 (stereo not drawn) [Example 217, 6-[5-[2-[[3-[(1-aminocyclopropyl)methoxy]-4-methyl-6,7-dihydro-5H-cyclopenta[c]pyridin-6-yl]methylamino]ethyl]-2-oxo-1,3-oxazolidin-3-yl]-4H-pyrido[3,2-b][1,4]oxazin-3-one] | < 97.7 | 
3 | N#Cc1cccc2c1CC(CNCCC1CN(c3ccc4c(n3)NC(=O)CS4)C(=O)O1)C2N (racemic) [Example 247, rac-1,2-trans-1-amino-2-[[2-[2-oxo-3-(3-oxo-4H-pyrido[3,2-b][1,4]thiazin-6-yl)-1,3-oxazolidin-5-yl]ethylamino]methyl]-2,3-dihydro-1H-indene-4-carbonitrile] | < 97.7 | 
4 | CN(CCOc1cc(F)c2c(c1)CC(CNCCC1CN(c3cnc4c(n3)NC(=O)CO4)C(=O)O1)C2)S(C)(=O)=O (stereo not drawn) [Example 325, N-[2-[[7-fluoro-2-[[2-[2-oxo-3-(3-oxo-4H-pyrazino[2,3-b][1,4]oxazin-6-yl)-1,3-oxazolidin-5-yl]ethylamino]methyl]-2,3-dihydro-1H-inden-5-yl]oxy]ethyl]-N-methylmethanesulfonamide] | 281 | 
5 | Cc1nc(OCC2(N)CC2)c(C#N)c2c1CC(CN1CCC3(CC1)CN(c1ccc4c(n1)NC(=O)CO4)C(=O)O3)C2 (stereo not drawn) [Example 215, 3-[(1-aminocyclopropyl)methoxy]-1-methyl-6-[[2-oxo-3-(3-oxo-4H-pyrido[3,2-b][1,4]oxazin-6-yl)-1-oxa-3,8-diazaspiro[4.5]decan-8-yl]methyl]-6,7-dihydro-5H-cyclopenta[c]pyridine-4-carbonitrile] | < 97.7 | 
6 | COc1cnc(Cl)c2c1CC(CNCCC1CN(c3ccc4c(n3)NC(=O)CO4)C(=O)O1)C2 (stereo not drawn) [Example 57, 6-[5-[2-[(1-chloro-4-methoxy-6,7-dihydro-5H-cyclopenta[c]pyridin-6-yl)methylamino]ethyl]-2-oxo-1,3-oxazolidin-3-yl]-4H-pyrido[3,2-b][1,4]oxazin-3-one] | 328 | 
7 | CN(C)CCOc1cc(F)c2c(c1)CC(CNCCC1CN(c3ccc4c(n3)NC(=O)CO4)C(=O)O1)C2 (stereo not drawn) [Example 271, 6-[5-[2-[[6-[2-(Dimethylamino)ethoxy]-4-fluoro-2,3-dihydro-1H-inden-2-yl]methylamino]ethyl]-2-oxo-1,3-oxazolidin-3-yl]-4H-pyrido[3,2-b][1,4]oxazin-3-one; formic acid] | < 97.7 | 
8 | Cc1nc(OCCNC2CC2)c(C)c2c1CC(CNCCC1CN(c3ccc4c(n3)NC(=O)CO4)C(=O)O1)C2 (stereo not drawn) [Example 189, 6-[5-[2-[[3-[2-(cyclopropylamino)ethoxy]-1,4-dimethyl-6,7-dihydro-5H-cyclopenta[c]pyridin-6-yl]methylamino]ethyl]-2-oxo-1,3-oxazolidin-3-yl]-4H-pyrido[3,2-b][1,4]oxazin-3-one] | 99.5 | 
9 | N#Cc1cccc2c1CC(CNC1CCC3C(C1)OC(=O)N3c1ccc3c(n1)NC(=O)CO3)C2 (racemic) [Example 99, 2-[[[rac-3a,7a-cis-6,7a-trans-2-oxo-3-(3-oxo-4H-pyrido[3,2-b][1,4]oxazin-6-yl)-3a,4,5,6,7,7a-hexahydro-1,3-benzoxazol-6-yl]amino]methyl]-2,3-dihydro-1H-indene-4-carbonitrile; formic acid] |  | 516
10 | N#Cc1c(OCC2(N)CC2)ncc2c1CC(CNCCC1CN(c3ccc4c(n3)NC(=O)CO4)C(=O)O1)C2 (stereo not drawn) [Example 198, 3-[(1-aminocycopropyl)methoxy]-6-[[2-[2-oxo-3-(3-oxo-4H-pyrido[3,2-b][1,4]oxazin-6-yl)-1,3-oxazolidin-5-yl]ethylamino]methyl]-6,7-dihydro-5H-cyclopenta[c]pyridine-4-carbonitrile] | < 97.7 | 
11 | NC1c2cccc(Cl)c2CC1CNCCC1CN(c2ccc3c(n2)NC(=O)CS3)C(=O)O1 (racemic) [Example 246, 5-[2-[(rac-1,2-trans-1-amino-4-chloro-2,3-dihydro-1H-inden-2-yl)methylamino]ethyl]-3-(3-oxo-4H-pyrido[3,2-b][1,4]thiazin-6-yl)-1,3-oxazolidin-2-one] | < 97.7 | 
12 | CNC(=O)COc1nc(C)c2c(c1C)CC(CNCCC1CN(c3cnc4c(n3)NC(=O)CO4)C(=O)O1)C2 (stereo not drawn) [Example 111, 2-[[1,4-dimethyl-6-[[2-[2-oxo-3-(3-oxo-4H-pyrazino[2,3-b][1,4]oxazin-6-yl)-1,3-oxazolidin-5-yl]ethylamino]methyl]-6,7-dihydro-5H-cyclopenta[c]pyridin-3-yl]oxy]-N-methylacetamide] | 489 | 
13 | COCC(N)COc1cc(F)c2c(c1)CC(CNCCC1CN(c3ccc4c(n3)NC(=O)CO4)C(=O)O1)C2 (stereo not drawn) [Example 248, 6-[5-[2-[[6-(2-amino-3-methoxypropoxy)-4-fluoro-2,3-dihydro-1H-inden-2-yl]methylamino]ethyl]-2-oxo-1,3-oxazolidin-3-yl]-4H-pyrido[3,2-b][1,4]oxazin-3-one] | < 97.7 | 
14 | Cc1nc(OCCCN)c(C)c2c1CC(CNCCC1CN(c3ccc4c(n3)NC(=O)CO4)C(=O)O1)C2 (stereo not drawn) [Example 176, 6-[5-[2-[[3-(3-aminopropoxy)-1,4-dimethyl-6,7-dihydro-5H-cyclopenta[c]pyridin-6-yl]methylamino]ethyl]-2-oxo-1,3-oxazolidin-3-yl]-4H-pyrido[3,2-b][1,4]oxazin-3-one] | 483 | 
15 | N[C@@H]1c2cccc(Cl)c2C[C@H]1CNCC[C@@H]1CN(c2cnc3c(n2)NC(=O)CO3)C(=O)O1 [Example 422, 6-[(5R)-5-[2-[[(1S,2S)-1-Amino-4-chloro-2,3-dihydro-1H-inden-2-yl]methylamino]ethyl]-2-oxo-1,3-oxazolidin-3-yl]-4H-pyrazino[2,3-b][1,4]oxazin-3-one] | < 97.7 | 
16 | CNC(=O)COc1cc(C)c2c(c1C#N)CC(CNCCC1CN(c3cnc4c(n3)NC(=O)CO4)C(=O)O1)C2 (stereo not drawn) [Example 384, 2-[[4-cyano-7-methyl-2-[[2-[2-oxo-3-(3-oxo-4H-pyrazino[2,3-b][1,4]oxazin-6-yl)-1,3-oxazolidin-5-yl]ethylamino]methyl]-2,3-dihydro-1H-inden-5-yl]oxy]-N-methylacetamide] | 167 | 
17 | Cc1ncc(F)c2c1CC(NCC(O)CC1CN(c3cnc4c(n3)NC(=O)CO4)C(=O)O1)C2 (single isomer, unassigned; isomer d) [Example 316, 6-[2-Oxo-5-[3-[(4-fluoro-1-methyl-6,7-dihydro-5H-cyclopenta[c]pyridin-6-yl)amino]-2-hydroxypropyl]-1,3-oxazolidin-3-yl]-4H-pyrazino[2,3-b][1,4]oxazin-3-one; formic acid, Isomer D] |  | 957
18 | CNC(=O)COc1cc(C#N)c2c(c1C)CC(CNCCC1CN(c3cnc4c(n3)NC(=O)CO4)C(=O)O1)C2 (stereo not drawn) [Example 383, 2-[[7-cyano-4-methyl-2-[[2-[2-oxo-3-(3-oxo-4H-pyrazino[2,3-b][1,4]oxazin-6-yl)-1,3-oxazolidin-5-yl]ethylamino]methyl]-2,3-dihydro-1H-inden-5-yl]oxy]-N-methylacetamide] | 139 | 
19 | Cc1ncc(Cl)c2c1CC(CNCCC1CN(c3ccc4c(n3)NC(=O)CO4)C(=O)O1)C2N (racemic) [Example 262, 6-[5-[2-[(rac-5,6-trans-5-Amino-4-chloro-1-methyl-6,7-dihydro-5H-cyclopenta[c]pyridin-6-yl)methylamino]ethyl]-2-oxo-1,3-oxazolidin-3-yl]-4H-pyrido[3,2-b][1,4]oxazin-3-one; formic acid] | < 97.7 | 
20 | Cc1ncc(F)c2c1CC(NC(C)CCC1CN(c3cnc4c(n3)NC(=O)CO4)C(=O)O1)C2 (single isomer, unassigned; isomer b) [Example 334, 6-[5-[3-[(4-fluoro-1-methyl-6,7-dihydro-5H-cyclopenta[c]pyridin-6-yl)amino]butyl]-2-oxo-1,3-oxazolidin-3-yl-4H-pyrazino[2,3-b][1,4]oxazin-3-one, Isomer B] |  | 321
21 | NC1(COc2cc(F)c3c(c2F)CC(CNCCC2CN(c4cnc5c(n4)NC(=O)CO5)C(=O)O2)C3)CC1 (stereo not drawn) [Example 408, 6-[5-[2-[[5-[(1-aminocyclopropyl)methoxy]-4,7-difluoro-2,3-dihydro-1H-inden-2-yl]methylamino]ethyl]-2-oxo-1,3-oxazolidin-3-yl]-4H-pyrazino[2,3-b][1,4]oxazin-3-one; formic acid] | < 97.7 | 
22 | CNC(=O)COc1cc(F)c2c(c1)CC(CNCCC1CN(c3ccc4c(n3)NC(=O)CO4)C(=O)O1)C2 (stereo not drawn) [Example 69, 2-[[7-fluoro-2-[[2-[2-oxo-3-(3-oxo-4H-pyrido[3,2-b][1,4]oxazin-6-yl)-1,3-oxazolidin-5-yl]ethylamino]methyl]-2,3-dihydro-1H-inden-5-yl]oxy]-N-methylacetamide; formic acid] | 123 | 
23 | NC1(COc2cc3c(c(Cl)n2)CC(CNCCC2CN(c4ccc5c(n4)NC(=O)CO5)C(=O)O2)C3)CC1 (stereo not drawn) [Example 122, 6-[5-[2-[[3-[(1-aminocyclopropyl)methoxy]-1-chloro-6,7-dihydro-5H-cyclopenta[c]pyridin-6-yl]methylamino]ethyl]-2-oxo-1,3-oxazolidin-3-yl]-4H-pyrido[3,2-b][1,4]oxazin-3-one; formic acid] | < 97.7 | 
24 | Cc1ncc(F)c2c1CC(CN(C)CCC1CN(c3cnc4c(n3)NC(=O)CO4)C(=O)O1)C2 (stereo not drawn) [Example 376, 6-[5-[2-[(4-Fluoro-1-methyl-6,7-dihydro-5H-cyclopenta[c]pyridin-6-yl)methyl-methylamino]ethyl]-2-oxo-1,3-oxazolidin-3-yl]-4H-pyrazino[2,3-b][1,4]oxazin-3-one] | < 97.7 | 
